Data as given in publication PMC6201879, “N-substituted phenylbenzamides of the niclosamide chemotype attenuate obesity related changes in high fat diet fed mice” (PLoS ONE, 2018).

System: Phosphorylated AMPK (Thr-172)
Experiment: High-throughput phosphorylated AMPK (Thr-172) TR-FRET assay in HepG2 cells
Assay type: cell-based, human
Conditions: HepG2 TR-FRET dose response between 0.625 and 10 μM, 4 hours; also Western blot
Description: Phosphorylated AMPK (Thr-172) TR-FRET Assay Kit was purchased from CisBio (Bedford MA). HepG2 [HB-8065] cells were trypsinized, harvested and counted using Countess II FL automated cell counter (Thermo Fisher Scientific). Cells were then seeded in Poly-D-Lysine coated 96-well black optical plates at a concentration of 10,000 cells per well in 50μL growth medium. After 24-hours, the media was removed and replaced with 50μL of fresh growth media containing compounds. Five concentrations of each compound were prepared, ranging from 10 to 0.625 μM and applied to columns 2–11 of the cell plate. Control wells contained DMSO (column 1-minimum response control) or 500199 (column 12-maximum response control). The final DMSO concentration was 0.45%. Cells were cultured for 4 hours before cells were lysed in 50μL of lysis buffer for 30 minutes at room temperature according to assays protocol. Following lysis, 16μL of lysate was transferred to white 384 well small volume assay plate and 4μL of antibody dyes were added per assay protocol.
Following overnight incubation, quantitation was performed on a PHERAstar (BMG), using the HTRF protocol with an excitation wavelength of 337nm and emission wavelengths of 665nm and 620nm. The ratio between emission spectra (665/620) was assessed for each well individually and averaged for triplicate samples. Data are presented as mean ratio ± SE. The differences between the control (DMSO) and the compound treated wells were analyzed using two-way ANOVA and Dunnett’s post hoc test. A value of p<0.05 was considered to be significant.
Fig 5 Validation of AMPK pathway activation by phenylbenzamide derivatives in HepG2 cells. A) Cells were seeded at 10,000 cells per well 24 hours prior to treating cells with indicated concentration of compound or DMSO (CTL) for 4 hours. 16μL of cell lysate was incubated with HTRF phospho-AMPK detection reagents and fluorescence emission read at 665nm and 620nm using a PHERAstar platereader. The mean and standard deviation of the HTRF Ratio from three replicate wells is shown. The unstimulated (DMSO) and positive controls lysates are shown in green and red respectively.

CC(C)(C)c1cc(C(=O)Nc2ccc(C(=O)O)cc2Cl)c(O)c(C(C)(C)C)c1 [Compound 600453, 3-Chloro-4-[(3,5-di-tert-butyl-2-hydroxybenzene)amido]benzoic acid]
phosphorylation of AMPK (Figs 5 and 4D): stimulated phosphorylation of AMPK
